Data reported in patent US20210121505A1, “COMPOSITIONS AND METHODS FOR TREATING INFLAMMATORY BOWEL DISEASES” (Seres Therapeutics, Inc., priority 2018, published 2021).

Tests used:
[1] = test system: LPS-stimulated peripheral blood mononuclear cells (PBMCs); test: TNF-α and IL-10 secretion assay, LPS-stimulated PBMCs; format: cell-based, Human; conditions: LPS-activated PBMCs; bile acid 12.5, 25, 50 μM; LPS 1 ng/mL; FIGS. 4A and 4B
Experimental: To better understand the possible relationship between the increased level of certain secondary bile acids and ulcerative colitis remission, monocytes and PBMCs were activated with LPS in the presence of varying concentrations of different primary and secondary bile acids in their conjugated and unconjugated forms. The amount of TNF-α and IL-10 produced by the activated cells was measured as described below.
Human buffy coat was obtained from Bioreclamation and shipped overnight on ice. Buffy coat was diluted 1:1 with PBS and layered on top of a Ficoll-Paque (GE Healthcare Cat #17-1440-03) in 50 mL falcon tubes. Samples were spun at 500×g for 20 min at room temperature with no brake. PBMCs were aspirated at the […] gradient layer and washed 3 times with PBS. Cells were counted with a hemocytometer to determine cell viability and concentration. Cells were plated onto 96 well plate and incubated at 37 C, 5% CO2 for 1 hour. Following this, bile acids were added at a final concentration of 12.5 μM, 25 μM and 50 μM for one hour prior to addition of LPS (1 ng/mL). After incubation of 16-20 hours, the cell culture media were collected for cytokine analysis. Cytokines were assayed using the Milliplex Human Cytokine kit (Luminex; Millipore), assaying IL-10 and TNF-α. Monocytes were isolated from PBMCs using the Miltenyi Biotec Pan Monocyte Isolation Kit (Cat No: 130-096-537) as per manufacturer's instructions and assayed as described above.

[2] = test system: intestinal epithelial cells (HT29); test: IL-8 secretion assay, TNF-α-stimulated intestinal epithelial cells; format: cell-based; conditions: bile acid 62.5, 125, 250 μM, 1.25 ng/mL TNF-α, relative to no bile acid control, FIG. 6
Experimental: Since IBD primarily affects the intestinal tissues, whether the anti-inflammatory effects observed in monocytes and PBMCs were also true in intestinal epithelial cells (HT29) was assessed as described below.
HT29 cells, cultured in McCoys Medium supplemented with 10% FBS, GlutaMAX and Pen/Strep were plated at a density of 50 k cells/well in 96-well format and allowed to grow for 5 days until fully confluent. Culture medium was changed every two days. On day 5, cells were pre-treated for 1 hour with 250 μM, 125 μM or 62.5 μM bile acid compounds before exposure to 1.25 ng/mL TNF-α. Cells were incubated overnight (16 h) and culture supernatants were collected for IL-8 protein quantification by ELISA. IL-8 levels of test samples were normalized to inflammatory controls, DMSO pre-treated samples (i.e., no bile acids) that were exposed to the 1.25 ng/mL TNF-α.

SMILES | anti-inflammatory effects (higher IL-10, lower TNF-α) [1] | IL-8 production [2]
C[C@H](CCC(=O)NCCS(=O)(=O)O)[C@H]1CC[C@H]2[C@@H]3CC[C@@H]4C[C@H](OS(=O)(=O)O)CC[C@]4(C)[C@H]3CC[C@]12C [tLCA, tauro-sulfo-lithocholic acid] | greatest anti-inflammatory effects | decreased IL-8 production in a dose-dependent manner
CC(CCC(=O)NCC(=O)O)C1CCC2C3CCC4CC(O)CCC4(C)C3CC(O)C12C (stereo not drawn) [gDCA, glyco-deoxycholic acid] | greatest anti-inflammatory effects | decreased IL-8 production in a dose-dependent manner
C[C@H](CCC(=O)NCCS(=O)(=O)O)[C@H]1CC[C@H]2[C@@H]3CC[C@@H]4C[C@H](O)CC[C@]4(C)[C@H]3C[C@H](O)[C@]12C [tDCA, tauro-deoxycholic acid] | greatest anti-inflammatory effects | decreased IL-8 production in a dose-dependent manner
